Converted amounts (≈) assume the structure as drawn. Read-outs that look alike come from different tables or passages of the source. No end group written: not given here.
Experiments:
MRSA strain MW2 [1] = assay: Rabbit infective endocarditis model; type: in vivo, New Zealand White Rabbits; settings: rabbit IE model; daptomycin 4 mg/kg IV once daily for 4 days
MRSA strain MW2 [2] = assay: Checkerboard assay in human serum and MHB; type: cell-based, S. aureus; settings: in combination with PlySs2 (CF-301)
[3] = test system: S. aureus (strain not given); assay: MIC analysis of various lysins, chimeric lysins and antibiotics in MHB and human serum; type: cell-based; settings: for Minimal inhibitory concentration, MHB / Fold decrease in MIC / Minimal inhibitory concentration, Human serum: Table 14 (Example 2); for Fold decrease in MIC: human serum vs MHB; for MIC: Staphylococcus aureus
Procedure: To further evaluate the binding domain relevance to the serum component effect, various chimerics were constructed by replacing or swapping out one binding domain for another. Chimeric lysins having the Sal1 CHAP catalytic domain with ClyS binding domain, PlySs2 (CF-301) binding domain, or lysostaphin binding domain were assayed for MIC using MHB versus human serum. the results are depicted below in TABLE 14.

[4] = test system: S. aureus (strain not given); assay: as above; type: cell-based; settings: Table 2; for MIC: Staphylococcus aureus; for Fold decrease in MIC: human serum vs MHB
[5] = test system: methicillin-resistant S. aureus (MRSA) strain MW2; assay: Time-kill assay in blood matrices and MHB; type: cell-based; settings: strain MW2; human blood matrices vs MHB
[6] = test system: staphylococci (strain not given); assay: Checkerboard analysis of PlySs2/CF-301 with AMPs, antimicrobial proteins and albumins in heat-inactivated human serum; type: cell-based, S. aureus; settings: in combination with PlySs2/CF-301
S. aureus strain MW2 = assay: Synergy time-kill assay; type: cell-based; settings: human serum

CCCCCCCCCC(=O)N[C@@H](Cc1c[nH]c2ccccc12)C(=O)N[C@H](CC(N)=O)C(=O)N[C@@H](CC(=O)O)C(=O)N[C@@H]1C(=O)NCC(=O)N[C@@H](CCCN)C(=O)N[C@@H](CC(=O)O)C(=O)N[C@H](C)C(=O)N[C@@H](CC(=O)O)C(=O)NCC(=O)N[C@H](CO)C(=O)N[C@@H]([C@H](C)CC(=O)O)C(=O)N[C@@H](CC(=O)c2ccccc2N)C(=O)O[C@@H]1C [Daptomycin, daptomycin, reference compound]
reduction in bacterial burden compared to vehicle treated controls (MRSA strain MW2 [1]): 2-3 log10 | ΣFICAVG (MRSA strain MW2 [2]; HuS): 0.292 | ΣFICMIN (MRSA strain MW2 [2]; HuS): 0.25 | ΣFICAVG (MRSA strain MW2 [2]; MHB): 0.63 | ΣFICMIN (MRSA strain MW2 [2]; MHB): 0.5 | Minimal inhibitory concentration, MHB [3]: 0.5 µg/mL (≈ 0.309 µM) | Fold decrease in MIC [3]: no | Minimal inhibitory concentration, Human serum [3]: 8 µg/mL (≈ 4.94 µM) | MIC ([4]; MHB, read-out: Minimal inhibitory concentration, MHB): 0.5 µg/mL (≈ 0.309 µM) | MIC ([4]; human serum, read-out: Minimal inhibitory concentration, Human serum): 8 µg/mL (≈ 4.94 µM) | Fold decrease in MIC [4]: no

CN[C@H](CC(C)C)C(=O)N[C@H]1C(=O)N[C@@H](CC(N)=O)C(=O)N[C@H]2C(=O)N[C@H]3C(=O)N[C@H](C(=O)N[C@H](C(=O)O)c4cc(O)cc(O)c4-c4cc3ccc4O)[C@H](O)c3ccc(c(Cl)c3)Oc3cc2cc(c3O[C@@H]2O[C@H](CO)[C@@H](O)[C@H](O)[C@H]2O[C@H]2C[C@](C)(N)[C@H](O)[C@H](C)O2)Oc2ccc(cc2Cl)[C@H]1O [Vancomycin, vancomycin, reference compound]
difference in sterilizing activity/potency, blood compared to MHB [5]: slightly decreased potency | ΣFICAVG (MRSA strain MW2 [2]; HuS): 0.5 | ΣFICMIN (MRSA strain MW2 [2]; HuS): 0.375 | ΣFICAVG (MRSA strain MW2 [2]; MHB): 0.63 | ΣFICMIN (MRSA strain MW2 [2]; MHB): 0.5 | Minimal inhibitory concentration, MHB [3]: 1 µg/mL (≈ 0.69 µM) | MIC ([3]; read-out: Minimal inhibitory concentration, Human serum): 1 µg/mL (≈ 0.69 µM) | MIC ([3]; read-out: Minimal inhibitory concentration, MHB): 1 µg/mL (≈ 0.69 µM) | Fold decrease in MIC [3]: no | Minimal inhibitory concentration, Human serum [3]: 1 µg/mL (≈ 0.69 µM) | Fold decrease in MIC [4]: no

HNP-1: Human AMP [reference compound]
ΣFICavg [6]: 1

Histatin-5 [reference compound]
ΣFICavg [6]: ≥1.16

LEAP-1: Human AMP (Hepcidin) (DTHFPICIFCCGCCHRSKCGMCCKT; ends and bridges not checked; cysteine pairing not given here; UniProt P81172 60-84, looked up) [reference compound]
ΣFICavg [6]: 0.75

LEAP-2: Human AMP (MTPFWRGVSLRPIGASCRDDSECITRLCRKRRCSLSVAQE; ends and bridges not checked; cysteine pairing not given here; UniProt Q969E1 38-77, looked up) [reference compound]
ΣFICavg [6]: 1

LL-37 [reference compound]
ΣFICavg [6]: 1

Lysostaphin: lysin-like enzyme of Staphylococcus simulans with SH3-type binding domain; SEQ ID NO:7
difference in sterilizing activity/potency, blood compared to MHB [5]: 100 fold | ΣFICAVG (MRSA strain MW2 [2]; HuS): 0.13 | ΣFICMIN (MRSA strain MW2 [2]; HuS): 0.09 | ΣFICAVG (MRSA strain MW2 [2]; MHB): 0.5 | ΣFICMIN (MRSA strain MW2 [2]; MHB): 0.275 | Minimal inhibitory concentration, MHB [3]: 2 µg/mL | Fold decrease in MIC [3]: 512 | Minimal inhibitory concentration, Human serum [3]: 0.0039 µg/mL | Minimal inhibitory concentration, MHB ([4]; MHB): 2 µg/mL | Fold decrease in MIC [4]: 512 | Fold decrease in MIC ([4]; listed as lysostaphin): 32 | Minimal inhibitory concentration, Human serum ([4]; human serum): 0.0039 µg/mL | concentration of each agent in PlySs2 (CF-301) + lysostaphin combination sterilizing at 24 hours (S. aureus strain MW2): 0.005 µg/mL

Lysozyme (Hen egg-white): lysozyme, hen egg
ΣFICavg [6]: ≤0.563

Serum albumin (Rabbit, from serum): rabbit serum albumin
ΣFICavg [6]: ≤0.1

β-Defensin 3: Human AMP (hBD-3) (GIINTLQKYYCRVRGGRCAVLSCLPKEEQIGKCSTRGRKCCRRKK; ends and bridges not checked; cysteine pairing not given here; UniProt P81534 23-67, looked up) [reference compound]
ΣFICavg [6]: 1
